What all share (format): biochemical
For assay [1], the target named is T1, HDAC6 enzyme (Homo sapiens, UniProt Q9UBN7).
T1 construct: transducing full length HDAC1 and HDAC6 genes into Sf-9 insect cells; GST; purchased SignalChem; host or cells: Sf-9 insect cells
T1 sequence (Q9UBN7 1-1215): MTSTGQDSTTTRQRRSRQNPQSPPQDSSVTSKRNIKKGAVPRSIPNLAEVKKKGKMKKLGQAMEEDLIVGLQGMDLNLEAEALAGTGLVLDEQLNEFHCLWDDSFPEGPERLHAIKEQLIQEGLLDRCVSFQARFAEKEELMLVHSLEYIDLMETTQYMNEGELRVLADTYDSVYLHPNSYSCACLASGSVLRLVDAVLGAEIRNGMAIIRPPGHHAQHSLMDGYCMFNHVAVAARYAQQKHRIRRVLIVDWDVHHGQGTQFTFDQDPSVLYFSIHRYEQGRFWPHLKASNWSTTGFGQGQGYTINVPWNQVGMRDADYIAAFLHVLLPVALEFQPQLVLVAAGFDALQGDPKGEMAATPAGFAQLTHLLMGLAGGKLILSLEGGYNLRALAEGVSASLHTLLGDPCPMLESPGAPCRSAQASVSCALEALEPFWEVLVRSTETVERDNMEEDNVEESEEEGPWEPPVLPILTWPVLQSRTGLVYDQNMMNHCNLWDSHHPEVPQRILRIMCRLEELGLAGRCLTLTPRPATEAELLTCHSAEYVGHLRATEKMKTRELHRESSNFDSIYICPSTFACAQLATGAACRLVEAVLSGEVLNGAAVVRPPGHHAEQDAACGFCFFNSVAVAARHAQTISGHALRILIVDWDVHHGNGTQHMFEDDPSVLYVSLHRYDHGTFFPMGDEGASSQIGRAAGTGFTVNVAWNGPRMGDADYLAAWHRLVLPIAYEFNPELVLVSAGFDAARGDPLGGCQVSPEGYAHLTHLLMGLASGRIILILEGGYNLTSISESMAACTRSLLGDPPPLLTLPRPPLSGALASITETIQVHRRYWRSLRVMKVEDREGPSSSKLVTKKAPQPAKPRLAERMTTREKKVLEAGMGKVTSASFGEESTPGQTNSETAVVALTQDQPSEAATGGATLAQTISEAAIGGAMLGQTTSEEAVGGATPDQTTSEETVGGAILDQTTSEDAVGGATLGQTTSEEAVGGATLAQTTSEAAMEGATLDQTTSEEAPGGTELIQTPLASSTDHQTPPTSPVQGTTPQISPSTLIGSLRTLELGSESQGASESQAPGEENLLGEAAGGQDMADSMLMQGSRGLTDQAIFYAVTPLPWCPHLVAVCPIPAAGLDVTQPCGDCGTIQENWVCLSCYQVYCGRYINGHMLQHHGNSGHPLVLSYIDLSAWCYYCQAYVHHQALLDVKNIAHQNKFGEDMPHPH
Kind of assay: HDAC1/6 Enzyme Inhibitory Assay (HDAC-Glo I/II Assay kit), HDAC6. The settings on record: 1 μM test compound, wells without enzyme = 100% inhibition; for inhibition at 1 µM: read-out: HDAC6 inhibitory rate (%) (1 μM). Summed up: (§1)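 Full-length human HDAC1 or HDAC6, expressed in Sf-9 cells and GST-purified, was preincubated with compound for 60 min at room temperature in Tris-HCl pH 7.5 buffer with MgCl2, KCl, NaCl, glutathione and Tween-20. HDAC-Glo substrate-developer was then added, and luminescence was read after 20 min. Inhibition was referenced to no-enzyme wells as 100%.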

For assay [2], the target named is T2, HDAC1 enzyme (Homo sapiens, UniProt Q13547).
T2 construct: transducing full length HDAC1 and HDAC6 genes into Sf-9 insect cells; GST; purchased SignalChem; host or cells: Sf-9 insect cells
Kind of assay: HDAC1/6 Enzyme Inhibitory Assay (HDAC-Glo I/II Assay kit), HDAC1. The settings on record: 1 μM test compound, wells without enzyme = 100% inhibition; for inhibition at 1 µM: read-out: HDAC1 inhibitory rate (%) (1 μM). In short, it runs like this: as §1

In assay [3] the target is T3, HDAC9 enzyme (Homo sapiens, UniProt Q9UKV0).
T3 construct: transducing full length HDAC9 gene into Sf-9 insect cells; made in house; host or cells: Sf-9 insect cells
Kind of assay: HDAC9 Enzyme Inhibitory Assay (HDAC-Glo class IIa). The settings on record: 1 μM test compound, wells without enzyme = 100% inhibition; for inhibition at 1 µM: read-out: HDAC9 inhibitory rate (%) (1 μM). Summed up: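 Full-length human HDAC9 from Sf-9 cells, Ni-NTA purified, preincubated with compound for 60 min at room temperature in Tris-HCl pH 7.5 buffer (MgCl2, KCl, NaCl, glutathione, Tween-20). HDAC-Glo class IIa substrate-developer added; luminescence read after 20 min, with no-enzyme wells defining 100% inhibition.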

T2 sequence (Q13547 whole entry): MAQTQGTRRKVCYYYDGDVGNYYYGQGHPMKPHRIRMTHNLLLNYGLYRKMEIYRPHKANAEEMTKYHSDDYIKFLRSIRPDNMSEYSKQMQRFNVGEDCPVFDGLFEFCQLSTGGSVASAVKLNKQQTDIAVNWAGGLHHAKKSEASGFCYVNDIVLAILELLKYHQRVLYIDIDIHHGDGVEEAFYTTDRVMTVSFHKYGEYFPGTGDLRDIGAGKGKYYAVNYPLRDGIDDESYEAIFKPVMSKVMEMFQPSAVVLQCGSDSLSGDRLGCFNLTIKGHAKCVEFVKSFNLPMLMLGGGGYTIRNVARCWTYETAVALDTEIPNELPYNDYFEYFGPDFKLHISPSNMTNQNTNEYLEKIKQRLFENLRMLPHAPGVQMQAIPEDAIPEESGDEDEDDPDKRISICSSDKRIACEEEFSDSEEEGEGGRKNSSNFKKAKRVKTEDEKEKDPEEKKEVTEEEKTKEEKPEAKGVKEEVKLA
T3 sequence (Q9UKV0 whole entry, species assumed): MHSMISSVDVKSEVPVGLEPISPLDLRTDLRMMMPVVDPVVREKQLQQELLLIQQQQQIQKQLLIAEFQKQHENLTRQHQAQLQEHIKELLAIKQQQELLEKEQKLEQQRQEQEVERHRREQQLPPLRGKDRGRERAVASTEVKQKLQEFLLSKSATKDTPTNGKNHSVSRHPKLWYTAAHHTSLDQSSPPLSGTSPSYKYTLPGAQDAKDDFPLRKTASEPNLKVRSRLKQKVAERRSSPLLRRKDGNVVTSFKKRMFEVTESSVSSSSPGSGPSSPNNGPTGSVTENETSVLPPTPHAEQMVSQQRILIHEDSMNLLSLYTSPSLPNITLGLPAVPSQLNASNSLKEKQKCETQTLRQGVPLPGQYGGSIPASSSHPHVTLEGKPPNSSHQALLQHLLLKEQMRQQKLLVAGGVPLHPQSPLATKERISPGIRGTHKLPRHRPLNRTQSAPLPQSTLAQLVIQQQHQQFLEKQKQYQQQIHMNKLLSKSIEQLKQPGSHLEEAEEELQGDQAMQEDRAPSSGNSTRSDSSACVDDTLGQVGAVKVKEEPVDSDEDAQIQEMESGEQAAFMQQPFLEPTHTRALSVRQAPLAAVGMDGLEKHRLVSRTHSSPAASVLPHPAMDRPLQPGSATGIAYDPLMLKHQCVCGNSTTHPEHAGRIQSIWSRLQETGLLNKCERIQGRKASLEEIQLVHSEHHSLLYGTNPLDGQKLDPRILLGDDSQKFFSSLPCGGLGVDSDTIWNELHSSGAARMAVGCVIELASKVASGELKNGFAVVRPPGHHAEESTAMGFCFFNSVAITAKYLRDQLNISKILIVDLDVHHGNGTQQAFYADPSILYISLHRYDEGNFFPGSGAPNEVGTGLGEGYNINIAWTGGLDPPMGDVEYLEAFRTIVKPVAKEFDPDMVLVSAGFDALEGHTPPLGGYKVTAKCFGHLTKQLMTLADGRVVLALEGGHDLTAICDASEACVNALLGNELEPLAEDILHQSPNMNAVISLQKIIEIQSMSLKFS

With `O=C(N[C@@H]1CCCC[C@H]1N1Cc2ccc(-c3noc(C(F)(F)F)n3)cc2C1=O)N1CC2(COC2)C1` [Example 161, N-((1R,2R)-2-(1-oxo-6-(5-(trifluoromethyl)-1,2,4-oxadiazol-3-yl)-1,3-dihydro-2H-isoindol-2-yl)cyclohexyl)-2-oxa-6-azaspiro[3.3]heptane-6-carboxamide], the inhibition at 1 µM in assay [1] came to 76%; in assay [2], 1%; in assay [3], 20%.

As for `O=C(N[C@@H]1CCCC[C@H]1N1Cc2ccc(-c3noc(C(F)(F)F)n3)cc2C1=O)N1CC(F)(F)C1` [Example 162, 3,3-difluoro-N-((1R,2R)-2-(1-oxo-6-(5-(trifluoromethyl)-1,2,4-oxadiazol-3-yl)-1,3-dihydro-2H-isoindol-2-yl)cyclohexyl)azetidine-1-carboxamide], the inhibition at 1 µM in assay [1] came out at 99%; in assay [2] it was 5%; in assay [3], 34%.

Take `COC1CN(C(=O)N[C@@H]2CCCC[C@H]2N2Cc3ccc(-c4noc(C(F)(F)F)n4)cc3C2=O)C1` [Example 163, 3-methoxy-N-((1R,2R)-2-(1-oxo-6-(5-(trifluoromethyl)-1,2,4-oxadiazol-3-yl)-1,3-dihydro-2H-isoindol-2-yl)cyclohexyl)azetidine-1-carboxamide]: the inhibition at 1 µM in assay [1] was 95%; in assay [2] it was 1%; in assay [3], 32%.

As to `O=C(N[C@@H]1CCCC[C@H]1N1Cc2ccc(-c3noc(C(F)(F)F)n3)cc2C1=O)N1CC2CC(C1)O2` [Example 164, N-((1R,2R)-2-(1-oxo-6-(5-(trifiuoromethyl)-1,2,4-oxadiazol-3-yl)-1,3-dihydro-2H-isoindol-2-yl)cyclohexyl)-6-oxa-3-azabicyclo[3.1.1]heptane-3-carboxamide], the results for the inhibition at 1 µM in assay [1], in assay [2] and in assay [3] were 97%, 1% and 18%, respectively.

Consider `O=C(NC1COC1)N[C@@H]1CCCC[C@H]1N1Cc2ccc(-c3noc(C(F)(F)F)n3)cc2C1=O` [Example 165, 1-oxetan-3-yl-3-((1R,2R)-2-(1-oxo-6-(5-(trifluoromethyl)-1,2,4-oxadiazol-3-yl)-1,3-dihydro-2H-isoindol-2-yl)cyclohexyl)urea], for which the inhibition at 1 µM in assay [1] came to 96%; in assay [2] it was 6%; in assay [3] it was 43%.

For `CC(C)N(C(=O)N[C@@H]1CCCC[C@H]1N1Cc2ccc(-c3noc(C(F)(F)F)n3)cc2C1=O)C(C)C` [Example 166, 1,1-diisopropyl-3-((1R,2R)-2-(1-oxo-6-(5-(trifluoromethyl)-1,2,4-oxadiazol-3-yl)-1,3-dihydro-2H-isoindol-2-yl)cyclohexyl)urea], the inhibition at 1 µM is 100% in assay [1], 12% in assay [2] and 36% in assay [3].

Regarding `O=C(N[C@@H]1CCCC[C@H]1N1Cc2ccc(-c3noc(C(F)(F)F)n3)cc2C1=O)N1C2CCCC1COC2` [Example 167, N-((1R,2R)-2-(1-oxo-6-(5-(trifluoromethyl)-1,2,4-oxadiazol-3-yl)-1,3-dihydro-2H-isoindol-2-yl)cyclohexyl)-3-oxa-9-azabicyclo[3.3.1]nonane-9-carboxamide], the results for the inhibition at 1 µM in assay [1], in assay [2] and in assay [3] were 101%, 7% and 34%, respectively.

Turning to `O=C(N[C@@H]1CCCC[C@H]1N1Cc2ccc(-c3noc(C(F)(F)F)n3)cc2C1=O)N1CCS(=O)(=O)CC1` [Example 168, N-((1R,2R)-2-(1-oxo-6-(5-(trifluoromethyl)-1,2,4-oxadiazol-3-yl)-1,3-dihydro-2H-isoindol-2-yl)cyclohexyl)thiomorpholine-4-carboxamide 1,1-dioxide], the inhibition at 1 µM in assay [1] amounted to 96%; in assay [2], 5%; in assay [3], 23%.

As for `O=C(N[C@@H]1CCCC[C@H]1N1Cc2ccc(-c3noc(C(F)(F)F)n3)cc2C1=O)N1CCC(F)(F)C1` [Example 169, 3,3-difluoro-N-((1R,2R)-2-(1-oxo-6-(5-(trifluoromethyl)-1,2,4-oxadiazol-3-yl)-1,3-dihydro-2H-isoindol-2-yl)cyclohexyl)pyrrolidine-1-carboxamide], the figures for the inhibition at 1 µM in assay [1], in assay [2] and in assay [3] were 98%, 10% and 40%, respectively.

Consider `CC1(C(=O)N[C@@H]2CCCC[C@H]2N2Cc3ccc(-c4noc(C(F)(F)F)n4)cc3C2=O)CC1(F)F` (stereo partly drawn) [Example 170, 2,2-difluoro-1-methyl-N-((1R,2R)-2-(1-oxo-6-(5-(trifluoromethyl)-1,2,4-oxadiazol-3-yl)-1,3-dihydro-2H-isoindol-2-yl)cyclohexyl) cyclopropanecarboxamide], for which the “HDAC6 inhibitory rate (%) (1 μM)” value in assay [1] amounted to 100%. In assay [2], the “HDAC1 inhibitory rate (%) (1 μM)” value is 16%. Also, in assay [3], the “HDAC9 inhibitory rate (%) (1 μM)” value came to 64%.

As for `CC1(C(=O)N[C@@H]2CCCC[C@H]2N2Cc3ccc(-c4noc(C(F)(F)F)n4)cc3C2=O)CC1(F)F` (stereo partly drawn) [Example 171, 2,2-difluoro-1-methyl-N-((1R,2R) 2-(1-oxo-6-(5-(trifluoromethyl)-1,2,4-oxadiazol-3-yl)-1,3-dihydro-2H-isoindol-2-yl)cyclohexyl)cyclopropanecarboxamide], the “HDAC6 inhibitory rate (%) (1 μM)” value in assay [1] is 98%. For the same compound, in assay [2], the “HDAC1 inhibitory rate (%) (1 μM)” value came to 9%. Further, the “HDAC9 inhibitory rate (%) (1 μM)” value in assay [3] was determined as 67%.

As for `O=C(N[C@@H]1CCOC[C@H]1N1Cc2ccc(-c3noc(C(F)(F)F)n3)cc2C1=O)[C@@H]1CC1(F)F` [Example 172, (1S)-2,2-difluoro-N-((3S,4R)-3-(1-oxo-6-(5-(trifluoromethyl)-1,2,4-oxadiazol-3-yl)-1,3-dihydro-2H-isoindol-2-yl)tetrahydro-2H-pyran-4-yl)cyclopropanecarboxamide], the inhibition at 1 µM in assay [1] came to 99%; in assay [2], 7%; in assay [3], 49%.

Consider `O=C1c2cc(-c3noc(C(F)(F)F)n3)ccc2CN1[C@@H]1CCCC[C@H]1NC(=O)C1(O)CCC1` [Example 173, 1-hydroxy-N-((1R,2R)-2-(1-oxo-6-(5-(trifluoromethyl)-1,2,4-oxadiazol-3-yl)-1,3-dihydro-2H-isoindol-2-yl)cyclohexyl) cyclobutanecarboxamide], for which the results for the inhibition at 1 µM in assay [1], in assay [2] and in assay [3] were 100%, 5% and 42%, respectively.

`CC1(C(=O)N[C@@H]2CCCC[C@H]2N2Cc3ccc(-c4noc(C(F)(F)F)n4)cc3C2=O)CCC1` [Example 174, 1-methyl-N-((1R,2R)-2-(1-oxo-6-(5-(trifluoromethyl)-1,2,4-oxadiazol-3-yl)-1,3-dihydro-2H-isoindol-2-yl)cyclohexyl)cyclobutanecarboxamide]: the inhibition at 1 µM in assay [1] was 90%; in assay [2], 8%; in assay [3], 60%.

Regarding `COC1(C(=O)N[C@@H]2CCCC[C@H]2N2Cc3ccc(-c4noc(C(F)(F)F)n4)cc3C2=O)CCC1` [Example 175, 1-methoxy-N-((1R,2R)-2-(1-oxo-6-(5-(trifluoromethyl)-1,2,4-oxadiazol-3-yl)-1,3-dihydro-2H-isoindol-2-yl)cyclohexyl)cyclobutanecarboxamide], the inhibition at 1 µM in assay [1] was 100%; in assay [2], 5%; in assay [3] it was 57%.
